Laboratory results published in PubChem BioAssay AID1963421 (Molecular Pharmacology Branch, DTP, NCI, 2024).
Blank lines part the entries; values can stand above or below the compound they belong to.

Tested on: 519858-162-T-J1-PDC complex spheroid growth, % test/control
Experiment: Anticancer human tumor 519858-162-T-J1-PDC patient-derived colon adenocarcinoma cell line growth inhibition [Asc]
Details: for viability, T/C: stronger effect = lower value
Method in brief: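 Concentration series start at each agent's clinical Cmax, or at 10 microM when none is established, and drop in half-log steps; agents are applied alone or together to complex spheroids built with HUVEC and hMSC.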
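Also: seven day drug exposure begun three days after spheroid seeding.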
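For viability, T/C in this document: 100% = DMSO vehicle wells and lower values mean less viable spheroid.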

IC50 (curve of first compound, second compound 0.00949 µM): > 100 nM | IC50 (curve of first compound, second compound 0.03 µM): > 100 nM | IC50 (curve of first compound, second compound 0.0949 µM): > 100 nM | IC50 (curve of first compound, second compound 0.3 µM): > 100 nM | IC50 (curve of first compound, second compound 0.949 µM): > 100 nM | IC50 (curve of first compound, second compound 3 µM): > 100 nM
SMILES: NC1CCC(NC2CC2c2ccccc2)CC1 (stereo unspecified) + CCN1C(C(=O)NC23CCC(C(=O)O)(CC2)CC3)C(c2cccc(Cl)c2F)C2(C(=O)Nc3cc(Cl)ccc32)C12CCCCC2
viability, T/C (second compound 0.00949 µM, first compound 0.000316 µM): 101% | viability, T/C (second compound 0.00949 µM, first compound 0.001 µM): 129% | viability, T/C (second compound 0.00949 µM, first compound 0.00316 µM): 130% | viability, T/C (second compound 0.00949 µM, first compound 0.01 µM): 112% | viability, T/C (second compound 0.00949 µM, first compound 0.0316 µM): 107% | viability, T/C (second compound 0.00949 µM, first compound 0.1 µM): 92.4% | viability, T/C (second compound 0.03 µM, first compound 0.000316 µM): 146% | viability, T/C (second compound 0.03 µM, first compound 0.001 µM): 149% | viability, T/C (second compound 0.03 µM, first compound 0.00316 µM): 101% | viability, T/C (second compound 0.03 µM, first compound 0.01 µM): 84.1% | viability, T/C (second compound 0.03 µM, first compound 0.0316 µM): 70.2% | viability, T/C (second compound 0.03 µM, first compound 0.1 µM): 110% | viability, T/C (second compound 0.0949 µM, first compound 0.000316 µM): 136% | viability, T/C (second compound 0.0949 µM, first compound 0.001 µM): 127% | viability, T/C (second compound 0.0949 µM, first compound 0.00316 µM): 136% | viability, T/C (second compound 0.0949 µM, first compound 0.01 µM): 124% | viability, T/C (second compound 0.0949 µM, first compound 0.0316 µM): 128% | viability, T/C (second compound 0.0949 µM, first compound 0.1 µM): 107% | viability, T/C (second compound 0.3 µM, first compound 0.000316 µM): 101% | viability, T/C (second compound 0.3 µM, first compound 0.001 µM): 82% | viability, T/C (second compound 0.3 µM, first compound 0.00316 µM): 99.6% | viability, T/C (second compound 0.3 µM, first compound 0.01 µM): 95.7% | viability, T/C (second compound 0.3 µM, first compound 0.0316 µM): 95.4% | viability, T/C (second compound 0.3 µM, first compound 0.1 µM): 129% | viability, T/C (second compound 0.949 µM, first compound 0.000316 µM): 97.5% | viability, T/C (second compound 0.949 µM, first compound 0.001 µM): 83.1% | viability, T/C (second compound 0.949 µM, first compound 0.00316 µM): 117% | viability, T/C (second compound 0.949 µM, first compound 0.01 µM): 89.1% | viability, T/C (second compound 0.949 µM, first compound 0.0316 µM): 89.9% | viability, T/C (second compound 0.949 µM, first compound 0.1 µM): 91% | viability, T/C (second compound 3 µM, first compound 0.000316 µM): 66.9% | viability, T/C (second compound 3 µM, first compound 0.001 µM): 86.8% | viability, T/C (second compound 3 µM, first compound 0.00316 µM): 74.4% | viability, T/C (second compound 3 µM, first compound 0.01 µM): 66.3% | viability, T/C (second compound 3 µM, first compound 0.0316 µM): 74.3% | viability, T/C (second compound 3 µM, first compound 0.1 µM): 89.2%

IC50 (compound alone, run of 11/15/2022): > 1000 nM | IC50 (curve of compound): > 1000 nM
SMILES: CNC(C)C(=O)NC1CN(S(=O)(=O)c2cccc(S(=O)(=O)N3CCC4CCC(C(=O)NC(c5ccccc5)c5ccccc5)N4C(=O)C(NC(=O)C(C)NC)C3)c2)CCC2CCC(C(=O)NC(c3ccccc3)c3ccccc3)N2C1=O (stereo unspecified)

IC50 (curve of first compound, second compound 0.0316 µM): 2100 nM | IC50 (curve of first compound, second compound 0.1 µM): 823 nM | IC50 (curve of first compound, second compound 0.316 µM): > 3000 nM | IC50 (curve of first compound, second compound 1 µM): > 3000 nM | IC50 (curve of first compound, second compound 3.16 µM): > 3000 nM | IC50 (curve of first compound, second compound 10 µM): > 3000 nM
SMILES: Cc1nc(N2CCC3(CC2)COC(C)C3N)c(CO)nc1Sc1ccnc(N)c1Cl (stereo unspecified) + Cc1c(S(C)(=O)=O)c(-c2cc(F)cc(N3CCN(c4ccc(NS(=O)(=O)c5ccc(NC(CCN6CCC(C(=O)OCCCP(=O)(O)O)CC6)CSc6ccccc6)c(S(=O)(=O)C(F)(F)F)c5)cc4)CC3)c2)c(-c2ccc(Cl)cc2)n1C(C)C
viability, T/C (second compound 0.0316 µM, first compound 0.00949 µM): 90.4% | viability, T/C (second compound 0.0316 µM, first compound 0.03 µM): 106% | viability, T/C (second compound 0.0316 µM, first compound 0.0949 µM): 47.1% | viability, T/C (second compound 0.0316 µM, first compound 0.3 µM): 73.5% | viability, T/C (second compound 0.0316 µM, first compound 0.949 µM): 68% | viability, T/C (second compound 0.0316 µM, first compound 3 µM): 39.9% | viability, T/C (second compound 0.1 µM, first compound 0.00949 µM): 109% | viability, T/C (second compound 0.1 µM, first compound 0.03 µM): 105% | viability, T/C (second compound 0.1 µM, first compound 0.0949 µM): 78.5% | viability, T/C (second compound 0.1 µM, first compound 0.3 µM): 63.9% | viability, T/C (second compound 0.1 µM, first compound 0.949 µM): 47.3% | viability, T/C (second compound 0.1 µM, first compound 3 µM): 43.6% | viability, T/C (second compound 0.316 µM, first compound 0.00949 µM): 81.5% | viability, T/C (second compound 0.316 µM, first compound 0.03 µM): 92.9% | viability, T/C (second compound 0.316 µM, first compound 0.0949 µM): 68% | viability, T/C (second compound 0.316 µM, first compound 0.3 µM): 101% | viability, T/C (second compound 0.316 µM, first compound 0.949 µM): 68.4% | viability, T/C (second compound 0.316 µM, first compound 3 µM): 50.5% | viability, T/C (second compound 1 µM, first compound 0.00949 µM): 92.5% | viability, T/C (second compound 1 µM, first compound 0.03 µM): 68.5% | viability, T/C (second compound 1 µM, first compound 0.0949 µM): 52.5% | viability, T/C (second compound 1 µM, first compound 0.3 µM): 75.5% | viability, T/C (second compound 1 µM, first compound 0.949 µM): 43.2% | viability, T/C (second compound 1 µM, first compound 3 µM): 53.7% | viability, T/C (second compound 3.16 µM, first compound 0.00949 µM): 71.4% | viability, T/C (second compound 3.16 µM, first compound 0.03 µM): 95.6% | viability, T/C (second compound 3.16 µM, first compound 0.0949 µM): 67.6% | viability, T/C (second compound 3.16 µM, first compound 0.3 µM): 62.8% | viability, T/C (second compound 3.16 µM, first compound 0.949 µM): 74.8% | viability, T/C (second compound 3.16 µM, first compound 3 µM): 56.2% | viability, T/C (second compound 10 µM, first compound 0.00949 µM): 68.9% | viability, T/C (second compound 10 µM, first compound 0.03 µM): 86.4% | viability, T/C (second compound 10 µM, first compound 0.0949 µM): 61.1% | viability, T/C (second compound 10 µM, first compound 0.3 µM): 59.8% | viability, T/C (second compound 10 µM, first compound 0.949 µM): 64% | viability, T/C (second compound 10 µM, first compound 3 µM): 76.5%
